Values after ≈ are worked out from the molar mass of the structure shown. Like-named read-outs stand apart in the source and are kept apart here.
Experiments:
young male Wistar rats = conditions: cited from earlier work
[1] = in vivo; cited from earlier work
SARS-CoV-2 [2] = type: cell-based; conditions: Calu-3 cells, 48-hour RB contact; read-out: EC50 (viral titer)
[3] = system: SARS-CoV-2 viral envelope protein (E gene) vRNA; experiment: qPCR of viral RNA (E gene) after RB treatment; type: cell-based
[4] = Plasma protein binding, ultracentrifugation method, human plasma; type: in vitro ADME
Description: (§1) In normal rats, 75-80% of the RB was recovered from the albumin fraction and the remaining 20-25% in other protein fractions [Tsao et al. 1988, supra; and Meurman, Acta medica Scan, Supp 167, Chapters I, III, V, VII, X and XII (1960)].

THP-1 AML cells = experiment: Cytokine/chemokine Bio-Plex assay of THP-1 AML culture supernatants; type: cell-based; conditions: RB 100 μM
Experimental: (§2) These studies were carried out using RB at 100 μM, or about 0.01% RB. Cytokine assays were carried out prior to the addition of RB to the cell culture medium (0), and at 8, 24 and 48 hours thereafter.
(§3) Proteins that associate with STING in the presence of RB were purified by immunoprecipitation and analyzed by mass spectrometry (LC-MS/MS). The culture supernatants from RB-treated cells were probed for a panel of 42 immune cytokines using the Bio-Plex® multiplex bead-based assay system (Bio-Rad Laboratories, Inc.).

[5] = Plasma protein binding, ultracentrifugation method, rat plasma; type: in vitro ADME
Description: as §1

[6] = system: SARS-CoV-2 isolate USA-WA1/2020; experiment: microbe, parasite or virus in culture; type: cell-based
[7] = cited from earlier work
STING = STING dimerization by Western blot in THP-1 AML cells; type: cell-based
Experimental: Cells were treated with RB and the induction of STING was evaluated by Western blot analysis using cyclic guanosine monophosphate-adenosine monophosphate (cGAMP) as a positive control.
as §2, §3

leukemia cell lines = conditions: cited from earlier work
SARS-CoV-2 [8] = system: SARS-CoV-2
[9] = Classic IV diagnostic use of RB, blood concentration; type: in vivo, human; conditions: 100 mg single IV bolus, blood volume approximately 5 L (also approximately 20 μM)
Experimental: Based on a molecular weight of 1018 g/mole for disodium RB, the classic IV diagnostic use of RB, conducted by giving 100 mg RB as a single IV bolus to adults with a standard blood volume of approximately 5 L, achieved a concentration of approximately 20 mg/L in the blood, or approximately 20 μM RB. Exposure at such a level would have minimal direct cytotoxic effect on solid tumor or hematologic malignancies, as illustrated by the results of Swift et al. 2019 or Swift et al. 2018, above.

[10] = humans, intravenous; cited from earlier work
[11] = cited from earlier work; remark: listed apart in the source
Vero cells = conditions: 48 hours
[12] = Clinical studies of PV-10 delivered intratumorally; type: in vivo, human
Experimental: In clinical studies of PV-10 (10% disodium RB in saline for injection), RB has been tolerated at a bolus dose of 1500 mg upon intravasation when delivered intratumorally; this equates to an exposure of approximately 300 mg/L in the bloodstream (300 μM RB).

[13] = package insert; cited from earlier work
progressive COVID-19 = conditions: cited from earlier work
[14] = rats, similar concentrations for comparators
[15] = oral 300 mg/kg/day, young male Wistar rats

In the case of `O=S(=O)([O-])c1ccc2c(N=Nc3ccc(S(=O)(=O)[O-])c4ccccc34)c(O)c(S(=O)(=O)[O-])cc2c1.[Na+].[Na+].[Na+]` [Amaranth, reference compound], the “H^3-UTP incorporation into RNA or RNA content in liver nuclei (RNA synthesis in vivo)” value (young male Wistar rats; rat, in vivo) is listed as “stimulate RNA synthesis”.

In the case of `N#C[C@@]1(c2ccc3c(N)ncnn23)O[C@H](CO)[C@@H](O)[C@H]1O` [GS-441524], the half-life [1] is listed as “about 25 hours”.

For `Cc1cc(C)c(N=Nc2c(O)c(S(=O)(=O)[O-])cc3cc(S(=O)(=O)[O-])ccc23)cc1C.[Na+].[Na+]` [Ponceau 3R, reference compound], the “H^3-UTP incorporation into RNA or RNA content in liver nuclei (RNA synthesis in vivo)” value (young male Wistar rats; [14]) is given as “stimulate RNA synthesis”.

For `O=C1OC2(c3cc(I)c(O)c(I)c3Oc3c2cc(I)c(O)c3I)c2c(Cl)c(Cl)c(Cl)c(Cl)c21` [RB, 4,5,6,7-tetrachloro-2′,4′,5′,7′-tetraiodofluorescein], the EC50 (SARS-CoV-2 [2]) was 0.015 µM, the “cycle threshold (ct) of sub-genomic viral RNA” value [3] was “higher ct values” and the “viral E gene copy numbers / viral production” value ([3]; RB added after the virus has been incubated with the cells) was “no effect”. The “viral E gene copy numbers” value ([3]; virus and RB added at the same time) was “reduction compared to control”, the “viral E gene copy numbers” value ([3]; virus pre-treated with RB 0.6 μM, 1 hour, p<0.05) was “lower copy numbers” and the plasma protein binding ([4]; 1 μM) was 99.8%. The plasma protein binding ([4]; 10 μM) was 99.9%, the “increase in IL-6” value (THP-1 AML cells; 24 hours following exposure) was “approximately 10 fold” and the “increase in IL-8” value (THP-1 AML cells; 24 hours following exposure) was “approximately 10 fold”. The “increase in IP-10” value (THP-1 AML cells; 24 hours following exposure) was “approximately 10 fold”, the MCP-1 levels (THP-1 AML cells) was “significant increase” and the “induction of IFN gamma” value (THP-1 AML cells; peak at 24 hours) was greater than 2 fold. For the same compound, the “induction of MCP-3” value (THP-1 AML cells; peak at 24 hours) was greater than 2 fold, the plasma protein binding [5] was 99.2% and the plasma protein binding ([5]; 1 μM) was 99.0%. The IC50 ([6]; RB alone, 2 hours of contact, Vero C1008, read-out: IC50 for inhibition) was 67 µM, the IC50 ([6]; RB plus 0.15 μM remdesivir, 2-hour RB contact, Vero C1008, read-out: IC50 for inhibition) was 47.4 µM and the solubility ([7]; in 2-methoxyethanol (printed also as 6%)) was 60 mg/mL (≈ 61.6 mM). The solubility ([7]; in ethanol (printed also as 3%)) was 30 mg/mL (≈ 30.8 mM), the solubility ([7]; in water (printed also as 10%)) was no less than 100 mg/mL and the “STING dimerization (Western blot)” value (STING; RB at 100 μM) was “new about 70-KD STING dimer band”. The “induction of PDL-1” value (STING; compared to cGAMP controls) was “no induction”, the “influence on growth rate” value (young male Wistar rats; [15]) was “no influence” and the relative liver weight (young male Wistar rats; [15]) was “significant decrease”. The “H^3-UTP incorporation into RNA or RNA content in liver nuclei (RNA synthesis in vivo)” value (young male Wistar rats; [14]) was “No effect”, the IC50 (leukemia cell lines; primary pediatric leukemia cell lines) was 92.8 µM and the IC50 (leukemia cell lines; refractory (relapsed) pediatric leukemia cell lines) was 122 µM. The “SI (CC50/EC50)” value (SARS-CoV-2 [8]; Vero cells, 48 hours) was 3211, the “inhibition in viral titers” value (SARS-CoV-2 [8]; Vero cells, approximately 1 to 100 μM RB, 48 hours of contact) was “complete inhibition” and the EC50 (SARS-CoV-2 [8]; read-out: EC50 (viral titer)) was 0.054 µM. The “concentration in the blood” value [9] was “approximately 20 mg/L”, the circulatory half-life [10] was “about 30 minutes” and the bound in serum ([11]; equilibrium dialysis, serum from rats lacking serum albumin) was “more than 99.8%”. For the same compound, the “recovered from the albumin fraction” value ([11]; normal rats) was 75-80%, the “recovered in other protein fractions” value ([11]; normal rats) was 20-25% and the CC50 (Vero cells) was 175 µM. For the same compound, the “exposure in the bloodstream” value ([12]; at 1500 mg bolus (printed also as 300 μM RB)) was “approximately 300 mg/L” and the tolerated bolus dose ([12]; upon intravasation when delivered intratumorally as PV-10) was 1500 mg.

For `CCC(CC)COC(=O)[C@H](C)N[P@](=O)(OC[C@H]1O[C@@](C#N)(c2ccc3c(N)ncnn23)[C@H](O)[C@@H]1O)Oc1ccccc1` [remdesivir, reference compound], the EC50 ([6]; Severe acute respiratory syndrome coronavirus 2, Vero C1008, read-out: EC50 (percent plaque forming unit)) is listed as 0.86 µM, the IC50 ([6]; Severe acute respiratory syndrome coronavirus 2, Vero C1008, read-out: IC50 (percent inhibition)) is listed as 0.86 µM and the half-life [1] is listed as “about 0.89 hours”.

In the case of “Yervoy®: immune checkpoint inhibitor monoclonal antibody”, the “terminal t1/2” value [13] is given as 15.4 days.

For “tocilizumab: immunosuppressive humanized monoclonal antibody against the interleukin-6 receptor”, the death rate ratio (progressive COVID-19; 28-day mortality, 95% CI 0.77-0.96, p=0.007) is given as 0.86 and the “proportional reduction in 28-day mortality” value (progressive COVID-19; about 4000 hospitalized patients, progressive COVID-19) is given as 13%.

From patent US11975106B2, “Uses of halogenated xanthenes in oncology and virology” (Provectus Pharmatech, Inc., priority 2020, dated 2024)
